Laboratory results published in publication PMC8705783, “The Effect of Conjugation with Octaarginine, a Cell-Penetrating Peptide on Antifungal Activity of Imidazoacridinone Derivative” (International Journal of Molecular Sciences, 2021).
In brackets after ≈: the same amount, converted by molar mass. Like-named read-outs stand apart in the source and are kept apart here. Blank lines part the entries; values can stand above or below the compound they belong to.

Key:
[1] = system: HEK-293; experiment: cells; format: cell-based, human; conditions: 72 h
Method: (§1) The investigated compounds were screened for their in vitro antiproliferative activity towards a human embryonic kidney cell line (HEK-293) and human liver cancer cell line (HEPG2) using colorimetric MTT.
(§2) The human embryonic kidney cell line (HEK-293) and human liver cancer cell line (HEPG2) were purchased from ATCC (Manassas, Virginia, USA). HEK-293 was cultured in Dulbecco’s Modified Eagle Medium (Corning, NY, USA) and HEPG2 in Minimum Essential Medium Eagle (Corning, NY, USA). For each cell line, the culture medium was supplemented with 10% fetal bovine serum, 2 mM L-glutamine, and antibiotics: penicillin 62.6 µg mL^−1 and streptomycin 40 µg mL^−1. The cells were cultured at the humidified atmosphere of 5% CO2/95% air and routinely tested for Mycoplasma contamination.
(§3) Antiproliferative activity of the compounds was determined by (3-(4,5-dimethylthiazol-2-yl)-2,5-diphenyltetrazolium bromide (MTT, Sigma-Aldrich, St. Louis, MO, USA) assay, which involves the assessment of cell viability by the measurement of the cellular oxidoreductase activity. Briefly, cells were seeded into 96-well culture plates and were allowed to adhere overnight. The investigated compounds were dissolved in DMSO and added to wells (1% final concentration of DMSO) in various concentrations. After 72 h incubation, 20 µL of MTT solution in PBS (4 mg mL^−1) was added to each well, and plates were incubated for an additional 3h in standard culture conditions. After that, the medium was aspirated, and formazan crystals were dissolved in DMSO. The absorbance was determined at 570 nm with a microplate reader (Asys UVM 340 Microplate Reader, Biochrom, Cambridge, UK). All experiments were performed three times independently in triplicate.

[2] = system: HEPG2; experiment: cells; format: cell-based, human; conditions: 72 h
Method: as §1, §2, §3

[3] = system: Candida albicans ATCC 10231
[4] = system: Candida glabrata ATCC 90030; conditions: ATCC 90030, 24 h, pH 7
[5] = system: Candida krusei ATCC 6258; conditions: ATCC 6258, 24 h, pH 7
[6] = system: Candida parapsilosis ATCC 22019; conditions: ATCC 22019, 24 h, pH 7
[7] = system: Saccharomyces cerevisiae ATCC 9763; conditions: ATCC 9763, 24 h, pH 7
[8] = system: Candida albicans B3; conditions: B3, 12 h
[9] = system: Candida albicans B4; conditions: B4, 12 h
[10] = system: Candida albicans Gu4; conditions: Gu4, 12 h
[11] = system: Candida albicans Gu5; conditions: Gu5, 12 h
[12] = system: Candida albicans F2; conditions: F2, 12 h
[13] = system: Candida albicans F5; conditions: F5, 12 h
[14] = system: HeLa cells; conditions: cited from earlier work
[15] = system: C. albicans ATCC 10231; experiment: microbe, parasite or virus in culture; format: cell-based; conditions: Candida albicans, ATCC10231; minimal fungicidal concentration that kills 99% of cells; read-out: MFC
Method: (§4) To establish the possible mode of action for Compound 1-R8, we have analysed the killing activity and determined minimal fungicidal concentrations (MFCs) (Table 4). Additionally, killing kinetics analysis against pathogenic C. albicans ATCC 10231 was performed (Figure 2).
(§5) Minimum fungicidal concentrations (MFCs) were determined as described previously by spot assay. The MFC was determined as the lowest concentration of the test compound in which no recovery of microorganisms was observed.

[16] = system: C. glabrata DSM 11226; experiment: microbe, parasite or virus in culture; format: cell-based; conditions: Nakaseomyces glabratus, DSM11226; minimal fungicidal concentration that kills 99% of cells; read-out: MFC
Method: as §4, §5

[17] = system: C. krusei DSM 6128; experiment: microbe, parasite or virus in culture; format: cell-based; conditions: Pichia kudriavzevii, DSM6128; minimal fungicidal concentration that kills 99% of cells; read-out: MFC
Method: as §4, §5

[18] = system: C. parapsilosis DSM 5784; experiment: microbe, parasite or virus in culture; format: cell-based; conditions: Lodderomyces parapsilosis, DSM5784; minimal fungicidal concentration that kills 99% of cells; read-out: MFC
Method: as §4, §5

[19] = system: S. cerevisiae ATCC 9763; experiment: Minimal fungicidal concentration, spot assay; format: cell-based; conditions: Saccharomyces cerevisiae, ATCC9763; minimal fungicidal concentration that kills 99% of cells; read-out: MFC
Method: as §4, §5

[20] = system: C. albicans ATCC 10231; format: cell-based, Candida albicans
Method: Killing kinetics analysis was performed as described previously. […] After an appropriate time of incubation, 10 μL was withdrawn and spread on YPG agar plates. The number of colony-forming units (CFUs) was determined after overnight incubation of the plates at 37 °C. The killing kinetics analysis was performed with the GraphPad Prism 8 software (GraphPad Software Inc., San Diego, CA, USA).

[21] = system: human erythrocytes; format: cell-based; conditions: 30 min
Method: Red blood cell concentrates were kindly provided by the Regional Centre for Blood Donation and Blood Treatment in Gdansk. The haemolytic activity determination was carried out by the serial dilution method according to the procedure described earlier. Human erythrocytes were suspended in a solution of saline to obtain a cell density of suspension 2 × l0^7 per mL. Suitable amounts of solutions of compounds diluted in DMSO were added to the cell suspension in tubes, incubated at 37 °C for 30 min, and then centrifuged (1700× g, 5 min, 4 °C). The concentration of haemoglobin in the supernatant after centrifugation of the erythrocytes suspension was determined by measuring the absorbance at wavelength λ = 540 nm (A540 ^sample). Control experiments with the same amount of DMSO were also performed (A540 ^DMSO). The maximum level of haemolysis was obtained after incubation of the cell suspension in the presence of 0.1% Triton X-100 (positive control, A540 ^0.1%Triton X−100). […] The EH50 values for each compound were calculated with GraphPad Prism 8 software. The EH50 is the interpolated concentration of compound, for which the A540 value is exactly 50% of the A540 value measured for the positive control sample. EH (%) was calculated as follows:EH (%) = ((A540 ^sample − A540 ^DMSO)/(A540 ^0.1%Triton X−100 − A540 ^0.9%NaCl)) × 100

[22] = system: Candida albicans ATCC 10231; experiment: microbe, parasite or virus in culture; conditions: ATCC10231, 24 h, pH 7
[23] = system: Candida glabrata ATCC 90030; experiment: microbe, parasite or virus in culture; conditions: Nakaseomyces glabratus, ATCC90030, 24 h, pH 7
[24] = system: Candida krusei ATCC 6258; experiment: microbe, parasite or virus in culture; conditions: Pichia kudriavzevii, ATCC6258, 24 h, pH 7
[25] = system: Candida parapsilosis ATCC 22019; experiment: microbe, parasite or virus in culture; conditions: Lodderomyces parapsilosis, ATCC22019, 24 h, pH 7
[26] = system: Saccharomyces cerevisiae ATCC 9763; experiment: microbe, parasite or virus in culture; conditions: ATCC9763, 24 h, pH 7

- IC50 [2]: > 50 µM
- MIC90 ([3]; ATCC 10231, 18 h): >64 µg/mL
- MIC90 ([3]; ATCC 10231, 24 h, pH 7): >64 µg/mL
- MIC90 [4]: >64 µg/mL
- MIC90 [5]: >64 µg/mL
- MIC90 [6]: 64 µg/mL (≈ 50.5 µM)
- MIC90 [7]: 64 µg/mL (≈ 50.5 µM)
- MIC90 [8]: >64 µg/mL
- MIC90 [9]: >64 µg/mL
- MIC90 [10]: >64 µg/mL
- MIC90 [11]: >64 µg/mL
- MIC90 [12]: >64 µg/mL
- MIC90 [13]: >64 µg/mL
Structure (SMILES): N=C(N)NCCC[C@H](NC(=O)[C@H](CCCNC(=N)N)NC(=O)[C@H](CCCNC(=N)N)NC(=O)[C@H](CCCNC(=N)N)NC(=O)[C@H](CCCNC(=N)N)NC(=O)[C@H](CCCNC(=N)N)NC(=O)[C@H](CCCNC(=N)N)NC(=O)[C@@H](N)CCCNC(=N)N)C(=O)O [Compound R8, Octaarginine]
- IC50 [1]: > 50 µM
- cytotoxicity [14]: no cytotoxicity

Structure (SMILES): C[C@@H]1[C@H](O)[C@@H](C)/C=C/C=C/C=C/C=C/C=C/C=C/C=C/[C@H](O[C@@H]2O[C@H](C)[C@@H](O)[C@H](N)[C@@H]2O)C[C@@H]2O[C@](O)(C[C@@H](O)C[C@@H](O)[C@H](O)CC[C@@H](O)C[C@@H](O)CC(=O)O[C@H]1C)C[C@H](O)[C@H]2C(=O)O [Amphotericin B]
- MFC [15]: 2 µg/mL (≈ 2.16 µM)
- MFC [16]: 2 µg/mL (≈ 2.16 µM)
- MFC [17]: 2 µg/mL (≈ 2.16 µM)
- MFC [18]: 2 µg/mL (≈ 2.16 µM)
- MFC [19]: 2 µg/mL (≈ 2.16 µM)
- mortality of the microbial population [20]: about 60%
- EH50 [21]: 3.46 ± 0.15 µg/mL
- MIC90 [22]: 0.5 µg/mL (≈ 0.541 µM)
- MIC90 [23]: 1 µg/mL (≈ 1.08 µM)
- MIC90 [24]: 1 µg/mL (≈ 1.08 µM)
- MIC90 [25]: 1 µg/mL (≈ 1.08 µM)
- MIC90 [26]: 0.5 µg/mL (≈ 0.541 µM)
